Assays:
filaggrin gene = experiment: Expression level of the filaggrin gene (RT-PCR) in cultured human keratinocytes exposed to a gaseous phase (drying); assay type: cell-based; conditions: drying stimulus; for Relative expression level of filaggrin gene (%) Mean: no treatment = 100
Description: (§1) Normal keratinocytes of human preputial origin and 3T3 cells of mouse origin were used.
(§2) The culture medium was DMEM-Ham's F12 (3:1) containing hydrocortisone, cholera enterotoxin, epidermal growth factor, insulin and 10% FBS.
(§3) The keratinocytes were cultured according to the method described in Rheinwald et al., Cell, 6, 331-344(1975).
(§4) An outline is given below. 3T3 cells were treated with mitomycin C and used as a feeder layer. Normal human keratinocytes (1×10^5 cells) were inoculated onto mitomycin C-treated 3T3 cells and cultured at 37° C. in a 95% air-5% carbon dioxide environment until they became confluent. They were exposed to a gaseous phase by removing the culture supernatant. Each test substance was added 30 minutes before exposed to a gaseous phase, followed by incubation at 37° C. The culture to which no test sample was added was used as a control. The exposure to a gaseous phase was carried out at 37° C. for 0-6 hours.
After each test substance was added to the aforesaid culture system and the cells were exposed to a gaseous phase for a predetermined period of time, RNA was extracted from the cells according to the AGPC method. This RNA was subjected to RT-PCR in the following manner. A primer specific for fillaggrin was prepared on the basis of the base sequence of filaggrin which is reported in McKinley-Grant L. J. et al., Proc. Natl. Acad. Sci. U.S.A., 86, 4848-4852(1989). In order to assay mRNA for filaggrin, RT-PCR was carried out by converting mRNA to cDNA with the aid of reverse transcriptase. Using this cDNA as a template with the aforesaid primer, a polymerase reaction (a well-known reaction) was carried out. After the PCR product was electrophoresed in agarose gel, the resulting gel was soaked in an ethidium bromide solution and assayed for DNA. The quantitative analysis of DNA bands was carried out with NIH Image (analytical program). A correction was made with the aid of glyceraldehyde-3-phosphate dehydrogenase (G3PDH).
(6-8) The efficacies of other active ingredients and combinations of active ingredients in inhibiting a reduction in the expression of the filaggrin gene in cultured human keratinocytes as induced by drying are shown in Tables 1 and 2 below, respectively. In these tables, the degree to which the addition of a drug inhibited a reduction in gene expression is expressed as a percentage, assuming that the gene expression before drying is 100% and the gene expression after drying is […]. In Table 1, each active ingredient was added at an extract concentration of 0.5%. In Table 2, compositions containing the indicated active ingredient(s) at the indicated concentration(s) (in % by weight) were tested.
The aforesaid recovery rates (%) indicate the degree to which the addition of each test substance restored the expression level of the filaggrin gene as compared with that in the untreated group not exposed to a drying stimulus.

filaggrin protein = experiment: Amount of filaggrin protein (western blotting) in cultured human keratinocytes exposed to a gaseous phase (drying); assay type: cell-based; conditions: culture in the presence of 10% glycerol, FIG. 3
Description: as §1, §2, §3, §4
After each test substance was added to the aforesaid culture system and the cells were exposed to a gaseous phase for a predetermined period of time, protein was extracted from the cells. According to a conventional method, filaggrin protein or filaggrin protein precursor (profilaggrin) was determined by western blotting. An outline is given below. […] The quantitative analysis of bands was carried out with NIH Image (analytical program). […]

Structure (SMILES)	Recovery rate (%) (filaggrin gene; 0.15% by weight)	Relative expression level of filaggrin gene (%) Mean (filaggrin gene; 0.15% by weight)	Recovery rate (%) (filaggrin gene; 0.30% by weight)	Relative expression level of filaggrin gene (%) Mean (filaggrin gene; 0.30% by weight)	effect on reduction in filaggrin protein level induced by drying (filaggrin protein)
OCC(O)CO [glycerol]	7.5%	51%	60.4%	79%	inhibiting a reduction in filaggrin protein level
OC[C@@H](O)[C@H](O)[C@@H](O)CO [xylitol]	5.7%	50%	37.7%	67%	

Source: US20040044077A1, “Agents for inhibiting or restoring skin damage caused by drying and method for evaluating the same” (priority 2000, published 2004)
